Like-named read-outs stand apart in the source and are kept apart here.
Legend:
[1] = molecular target: T1, M(2) muscarinic receptor (Homo sapiens, UniProt P08172); assay: R-SAT functional receptor assay, M(2); format: cell-based; settings: for Emax: read-out: M2 % efficacy
T1 construct: expressed in transfected cells
T1 sequence (P08172 1-466): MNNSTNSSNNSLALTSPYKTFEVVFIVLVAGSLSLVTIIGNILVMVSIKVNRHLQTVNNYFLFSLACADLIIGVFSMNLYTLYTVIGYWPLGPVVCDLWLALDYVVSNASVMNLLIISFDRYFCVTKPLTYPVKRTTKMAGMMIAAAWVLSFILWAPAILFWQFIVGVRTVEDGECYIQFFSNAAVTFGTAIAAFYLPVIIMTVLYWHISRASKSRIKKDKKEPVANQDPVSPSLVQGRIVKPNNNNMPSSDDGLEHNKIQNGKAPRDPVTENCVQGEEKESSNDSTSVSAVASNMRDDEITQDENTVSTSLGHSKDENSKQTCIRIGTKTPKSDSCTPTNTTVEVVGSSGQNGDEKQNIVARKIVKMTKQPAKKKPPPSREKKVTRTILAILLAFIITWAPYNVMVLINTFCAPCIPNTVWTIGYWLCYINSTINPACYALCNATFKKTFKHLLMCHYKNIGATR
From the text: (§1) The functional receptor assay, Receptor Selection and Amplification Technology (R-SAT), essentially as disclosed in U.S. Pat. Nos. 5,707,798, 5,912,132, and 5,955,281, which are all hereby incorporated by reference in their entirety, was used to investigate the pharmacological properties of known and novel muscarinic agonists.

[2] = tested on: thermal hyperalgesia; assay: CCI/Thermal Hyperalgesia (paw withdrawal latency to radiant heat); format: in vivo; settings: CCI rats; for dose that significantly reversed thermal hyperalgesia: post-hoc comparison relative to vehicle
Experimental: (§2) Rats were anesthetized under aseptic and heated conditions using a combination of 1.6 ml ketamine (100 mg/ml) and 1.6 ml xylazine (100 mg/ml) in 6.8 ml 0.9% saline at a volume of 0.1 ml/100 g. The left quadriceps was shaved and scrubbed thoroughly with an iodine solution. The sciatic nerve was exposed at the level of the sciatic notch distally to the sciatic trifurcation. The nerve was very carefully freed from the underlying muscle and connective tissue without causing trauma to the nerve itself. Using 4-0 chromic catgut suture material, four semi-loose ligatures were tied around the sciatic nerve starting at the most proximal level, next to the sciatic notch, spaced roughly 1 mm apart and ending proximal to the sciatic trifurcation. […] The muscular incision was closed with 4-0 silk suture material and the skin was stapled with wound clips. The animals were closely observed until they recovered completely from the anesthetic. The surgery was the same for the hyperalgesia and allodynia experiments.
For hyperalgesia testing, rats were placed in a tinted plastic box on top of a clear glass, temperature-regulated floor maintained at 31±1° C. The floor contained a focal radiant heat source (halogen projection lamp CXL/CXP, 50 W, 8 v, USHIO, Tokyo).
To initiate the test, rats were placed in the tinted boxes and allowed 10-20 minutes to acclimate to the new environment. The radiant heat source was then positioned under the plantar surface of the hind paw. Upon activation of the heat source, a timer was simultaneously triggered. Upon reflex movement of the hind paw, a motion sensor was activated stopping the timer and inactivating the heat source. The thermal source was adjusted so that the average response latency for an uninjured animal was no greater than 20 seconds. Each rat had two days of pre-operative baseline latency measurements in which the left rear hind paw plantar surface was measured three to four times. Two to three left postoperative baseline latency measurements were taken before and after the treatment was given. Postoperative day 2 and 4 measurements yielded the greatest degree of hyperalgesia and thus were utilized in this assay. Each animal was tested twice with at least 48 hours separating each test.
Thermal hyperalgesia developed in the surgical-treated left paw as evidenced by a decrease in paw withdrawal latencies to a thermal stimulus. The maximal hyperalgesia occurred on post-operative days 2 through 4. Paw withdrawal latencies on the surgically-treated left side gradually returned to baseline levels over the course of 5 to 12 days post-surgery.

[3] = tested on: acute thermal pain; assay: Acute Thermal Analgesia (tail withdrawal from 55° C. water); format: in vivo; settings: rats; for dose active in acute antinociception (tail withdrawal) / alleviating acute thermal pain, in words: 55° C. water; for Acute pain, minimal effective dose: NA = not active at the highest tested dose of 30 mg/kg
Experimental: Water was heated and maintained at 55° C.±1° C. with a probe regulated hot plate. Female rats weighing approximately 200 g -250 g were acclimated days in advance by placing them into and removing them from a plastic rat restrainer. On the day of the experiment each rat was placed in the restrainer 1 minute before the test was performed. Roughly one inch of the tail was submerged into the water as a timer was initiated. Once the tail was completely removed from the water, the timer was stopped and the time was recorded. […] One round of baseline measurements were collected. The test compound was administered and after the appropriate pretreatment interval, the procedure was repeated. Each animal was utilized in multiple experiments, with one treatment per experiment, and an appropriate washout period of at least 48 hours between experiments. The pre-treatment baseline tail withdrawal latency average was 2.281 s±0.25. […] At a dose of 10 mg/kg, morphine [F(3,23)=5.903, p<0.01] was antinociceptive.

[4] = tested on: tactile allodynia; assay: CCI/Tactile Allodynia (von Frey hairs); format: in vivo; settings: CCI rats; for dose that reversed tactile allodynia: i.p., post-hoc comparison
Experimental: as §2
The onset and duration of significant mechanical allodynia post CCI surgery is approximately 10-14 days and lasts for roughly two months. Within this allodynic time frame, and for each specific allodynia experiment, pre and post drug administration measurements were taken with seven von Frey hairs which are designated by log (10* force required to bend hair, mg) and ranged from 2-26 grams (#'s 4.31-5.46). Each hair was pressed perpendicularly against the left injured plantar mid-hind paw surface with sufficient force to cause a slight bending, and was held for 6-8 seconds starting with the thinnest gauged hair and working up to the thickest. A positive response was recorded when the injured paw was sharply withdrawn, and this response was confirmed as positive by testing the next thickest gauged hair for the same response. Only when a response was seen twice was the score accepted. If the maximum gram force of 26 was reached without a response, this was considered the peak threshold cutoff for allodynic behavior and the score was recorded. Animals were considered allodynic when the post surgery baseline measurements were 6 grams and below. Two baseline days of measurements were taken with one round of testing occurring per day. On the day of drug testing, one round of baseline measurements were taken, the appropriate pretreatment was administered i.p. and a second round of measurements were recorded. Each animal was utilized in multiple experiments, with one treatment per experiment, and an appropriate washout period in between experiments.

[5] = molecular target: T2, M(1) muscarinic receptor (Homo sapiens, UniProt P11229); assay: R-SAT functional receptor assay, M(1); format: cell-based; settings: for Emax: read-out: M1 % efficacy
T2 construct: expressed in transfected cells
T2 sequence (P11229 1-460): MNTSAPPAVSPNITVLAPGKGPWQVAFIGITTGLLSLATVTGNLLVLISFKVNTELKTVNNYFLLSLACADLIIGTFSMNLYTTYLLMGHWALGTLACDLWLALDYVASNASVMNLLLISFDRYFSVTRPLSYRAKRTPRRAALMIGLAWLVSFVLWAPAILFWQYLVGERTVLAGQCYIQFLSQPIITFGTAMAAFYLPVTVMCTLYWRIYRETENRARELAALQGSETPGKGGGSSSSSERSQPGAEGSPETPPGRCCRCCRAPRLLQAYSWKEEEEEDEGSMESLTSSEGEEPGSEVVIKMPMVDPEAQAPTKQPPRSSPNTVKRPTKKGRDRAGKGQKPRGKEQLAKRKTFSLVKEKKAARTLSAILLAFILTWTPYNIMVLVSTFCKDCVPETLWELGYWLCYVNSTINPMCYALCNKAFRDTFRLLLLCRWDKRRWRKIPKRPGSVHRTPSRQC
From the text: as §1

[6] = tested on: rats; assay: Muscarinic Side Effects; settings: of N tested
[7] = tested on: tactile allodynia; assay: Partial Sciatic Ligation (PSL) Surgery/Tactile Allodynia; format: in vivo, mice
[8] = R-SAT, read-out: M1 pEC50 (converted)
[9] = R-SAT, read-out: M2 pEC50 (converted)

| SMILES | agonist character at M(2) receptor, in words ([1]; R-SAT) | Emax ([1]; R-SAT, relative to carbachol) [%] | Antihyperalgesic, minimal effective dose [2] [mg/kg] | dose that significantly reversed thermal hyperalgesia [2] [mg/kg] | dose active in acute antinociception (tail withdrawal) [3] [mg/kg] | Acute pain, minimal effective dose [3] [mg/kg] | Antiallodynic, minimal effective dose [4] [mg/kg] | agonist character at M(1) receptor, in words ([5]; R-SAT) | EC50 [5, 8] [nM] | Emax ([5]; R-SAT, relative to carbachol) [%] | EC50 [1, 9] [nM] | alleviating acute thermal pain, in words [3] | dose that reversed tactile allodynia [4] [mg/kg] | also measured |
| --- | --- | --- | --- | --- | --- | --- | --- | --- | --- | --- | --- | --- | --- | --- |
| CCCCCCOc1nsnc1C1=CCCN(C)C1 [Xanomeline] | potent and efficacious full agonists | 109 | 10.0 | 10 | 10.0 | 10.0 | 10.0 |  |  |  |  |  |  | dose that did not reverse thermal hyperalgesia ([2]; p>0.05 relative to vehicle): 3 mg/kg |
| CCCCC1CCN(CCCc2nsc3ccccc23)CC1 [Formula (VII)] | weak partial agonists | 36 | 10.0 | 10 |  |  | 10.0 | potent and efficacious M(1) agonist | 79.4 | 85 | 1260 | not active | 10 |  |
| CN1CC[C@]23c4c5ccc(O)c4O[C@H]2[C@@H](O)C=C[C@H]3[C@H]1C5 [Morphine, morphine] |  |  |  |  | 10 |  |  |  |  |  |  |  |  | anti-allodynia, in words [4]: elicited anti-allodynia |
| O=C1CCCN1CC#CCN1CCCC1 [Oxotremorine] | potent and efficacious full agonists |  | 0.3 |  |  | 0.3 | 0.3 | potent and efficacious full agonists |  |  |  |  |  | Chromodaccyhrea, number of animals exhibiting ([6]; 0.1 mg/kg): 0; Diarrhea, number of animals exhibiting ([6]; 0.1 mg/kg): 1; Lethargy, number of animals exhibiting ([6]; 0.1 mg/kg): 0; Salivation, number of animals exhibiting ([6]; 0.1 mg/kg): 0; Tremor, number of animals exhibiting ([6]; 0.1 mg/kg): 0; Chromodaccyhrea, number of animals exhibiting ([6]; 0.3 mg/kg): 2; Diarrhea, number of animals exhibiting ([6]; 0.3 mg/kg): 7; Lethargy, number of animals exhibiting ([6]; 0.3 mg/kg): 0; Salivation, number of animals exhibiting ([6]; 0.3 mg/kg): 9; Tremor, number of animals exhibiting ([6]; 0.3 mg/kg): 0; Chromodaccyhrea, number of animals exhibiting ([6]; 1 mg/kg): 8; Diarrhea, number of animals exhibiting ([6]; 1 mg/kg): 18; Lethargy, number of animals exhibiting ([6]; 1 mg/kg): 18; Salivation, number of animals exhibiting ([6]; 1 mg/kg): 16; Tremor, number of animals exhibiting ([6]; 1 mg/kg): 6; EC50 [5]: 63.1 nM; Emax [5]: 91%; EC50 [1]: 15.8 nM; Emax [1]: 104%; paw withdrawal latency ([2]; dose 1 mg/kg): 18.468 ± 1.532 s |
| CO/N=C/C1=CCCN(C)C1 [Milameline] | potent and efficacious full agonists | 110 | 0.3 |  | 1.0 | 1.0 | 0.3 | potent and efficacious full agonists | 398 | 90 | 631 |  |  |  |
| CCCCC1CCN(CCCN2C(=O)COc3cc(F)ccc32)CC1 [Formula (IX)] | weak partial agonists | 48 | 10.0 | 10 |  |  | 17.8 | potent and efficacious M(1) agonist | 31.6 | 79 | 501 | not active | 17.8 | effect on tactile allodynia after PSL, in words ([7]; M(1) receptor knockout (KO) mice, 30 mg/kg): completely abolished; effect on tactile allodynia after PSL, in words ([7]; mice, intracerebroventricular (i.c.v.) administration): significantly reversed tactile allodynia; effect on tactile allodynia after PSL, in words ([7]; wild type (WT) mice, 30 mg/kg): significantly alleviated the tactile allodynia |
| CCCCC1CCN(CCCN2CCOc3ccc(C)cc32)CC1 [Formula (VIII)] | weak partial agonists |  | 10.0 | 10 |  |  | 30.0 | potent and efficacious M(1) agonist | 20 |  | 501 | not active | 30 | Emax [5]: 81%; Emax [1]: 39% |
